This series in a line: Release kinetics at 38° C. in oven, by daily weighing (Examples 5-8, 10, 11). The format is physicochemical.

Consider `CCOP(=S)(OCC)Oc1cc(C)nc(C(C)C)n1` [DIAZINON], for which the “release as of the fourth day” value (EVA object with DIAZINON and GIN3, for the remaining 70%) was 1.30 % per day. The “amount released the first three days” value (EVA object with DIAZINON and GIN3 granules blended 40/60, FIG. 7) came out at 28%.

As for `C=CC(C)(O)CCC=C(C)C` (stereo not drawn) [LINALOL], the “peak of release of LINALOL relative to the bracelet, in absolute value” (EVA/PEBAX matrix 30% LINALOL vs PVC bracelet 15% LINALOL, oven 38° C., FIG. 11) stood at 16 times.

The values above are taken from patent US9060520B2, “Domestic animal parasite-repellent device” (priority 2007, dated 2015).
